Earlier results on 2 molecules are cited in patent US20250387420A1, “Prevention of Nausea and Vomiting from Antibody-Drug Conjugates and other Long-Acting Emetogenics” (Helsinn Healthcare SA, priority 2024, published 2025).

The target of one data set is NK1 receptor (Homo sapiens, UniProt P25103).
For data set [1] the following is noted: 48 hours after a single 300 mg oral netupitant dose; Gilmore and Bernareggi 2019.
The test system of data set [2] is patients receiving cisplatin-based chemotherapy. The conditions noted are these: 168 hours following highly emetogenic cisplatin-based therapy.

Chain of NK1 receptor (P25103 whole entry): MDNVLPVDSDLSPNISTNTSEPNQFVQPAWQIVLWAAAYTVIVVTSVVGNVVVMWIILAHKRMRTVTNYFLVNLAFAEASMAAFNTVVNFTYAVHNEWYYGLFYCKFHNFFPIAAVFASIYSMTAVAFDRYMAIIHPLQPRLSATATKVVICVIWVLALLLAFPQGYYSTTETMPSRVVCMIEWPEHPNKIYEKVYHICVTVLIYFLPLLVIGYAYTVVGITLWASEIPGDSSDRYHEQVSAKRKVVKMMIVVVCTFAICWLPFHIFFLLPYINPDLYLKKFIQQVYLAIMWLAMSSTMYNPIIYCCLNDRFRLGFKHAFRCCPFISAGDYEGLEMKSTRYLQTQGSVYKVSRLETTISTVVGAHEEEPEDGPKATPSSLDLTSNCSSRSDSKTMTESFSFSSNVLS

Regarding `C[C@@H](O[C@H]1OCCN(Cc2n[nH]c(=O)[nH]2)[C@H]1c1ccc(F)cc1)c1cc(C(F)(F)F)cc(C(F)(F)F)c1` [aprepitant], at NK1 receptor (Bergstrom et al. 2004), the “NK1 receptor occupancy rates necessary for efficacy” value is > 90%.

As to `Cc1ccccc1-c1cc(N2CCN(C)CC2)ncc1N(C)C(=O)C(C)(C)c1cc(C(F)(F)F)cc(C(F)(F)F)c1` [netupitant], in data set [1], the plasma concentration result was “below 100 ng/mL”. For the same molecule, at NK1 receptor (Spinelli et al. 2013), the “plasma concentration at which 90% receptor occupancy is achieved” value is 225 ng/mL. Also, in data set [2], the “comparative efficacy versus aprepitant” value is reported as “favorable comparative efficacy to aprepitant”.
